# T1: Gad m 1 peptide 12 (12-mer overlapping synthetic peptide) (Atlantic cod)
# T1 construct: Immobilized on the SPOT membrane, about 10 nmol per spot
# T1 peptide: GSFDHKAFFTKV
# T2: Gad m 1 peptide 13 (12-mer overlapping synthetic peptide) (Atlantic cod)
# T2 construct: Immobilized on the SPOT membrane, about 10 nmol per spot
# T2 peptide: FDHKAFFTKVGL
# T3: Gad m 1 peptide 14 (12-mer overlapping synthetic peptide) (Atlantic cod)
# T3 construct: Immobilized on the SPOT membrane, about 10 nmol per spot
# T3 peptide: HKAFFTKVGLAA
# T4: Gad m 1 peptide 15 (12-mer overlapping synthetic peptide) (Atlantic cod)
# T4 construct: Immobilized on the SPOT membrane, about 10 nmol per spot
# T4 peptide: AFFTKVGLAAKS
# Legend:
# [1] = tested on: IgE in sera from fish-allergic patients; assay: Peptide array (SPOT) immunoassay, IgE binding; parameters: species or system human; conditions: sera from ten fish-allergic patients (groups S-I, S-II), 1/10 dilution; 10 nmol/spot
# Text: It was first characterized the sequence elements to address how amyloid formation contributes to the IgE reactivity of Gad m 1. A set of 12-mer overlapping synthetic peptides with an offset of 2 that correspond to the sequence of Gad m 1 was used in an array-based immunoassay (Fig. 6).
# This peptide length and surface density (10 nmol/spot) ensures the preservation of amyloid formation (which is conventionally limited to 6 residues), and differs from previous microarrays assays using a 15-mer with an offset of 3 (Perez-Gordo, M. et al. Mol Nutr Food Res 57, 1283-1290, (2013)).
# The peptide membranes were assayed using the sera from ten patients who are allergic to fish (Figs. 1, 2). The IgE binding intensity was variable among the tested sera; however, it was possible to identify four major binding regions (I-IV) and two major groups of sera (S-I: S2, S3, S4, S7 and S8; S-II: S1, S5, S6, S12 and S13). […] Of these four regions, region I overlaps the sequence predicted as the cross-β sheet forming (adhesive) segment in helix A, whereas regions III and IV overlap the immunologically reactive sites located on the junctions between the AB and CD domains (residues 33-44) and between the CD and EF domains (residues 65-74) (Martinez, J. et al. Swiss Med Wkly 145, (2015)). Nevertheless, the reactivity of the Ca^2+-binding loop of the EF domain (residues 88-96) and of the C-terminal (residues 95-109) regions was not detected by these sera, as probed by both IgE and IgG4 binding (Fig. 1d) (Perez-Gordo, M. et al. Int Arch Allergy Imm 157, 31-40, (2012)). It merits comment that IgG4 reactivity, which is considered as a protective response in allergy, is largely detected in region IV for both sera groups (Perez-Gordo, M. et al. Int Arch Allergy Imm 157, 31-40, (2012)).
# Peptide arrays (SPOT). Dodecapeptides spanning the whole sequence of Gad m 1, with an overlap of ten residues, were solid-phase synthesized and immobilized (≈10 nmol per spot) on an Amino-PEG500-UC540 sheet at the National Centre for Biotechnology (CNB-CSIC, Madrid). Before use, the membranes were rinsed with ethanol, washed three times with TBS (25 mM Tris-HCl, pH 7.5, containing 137 mM NaCl and 2.7 mM KCI), and incubated in TBS containing 1% BSA (w/v) and 2 mM EDTA for 1 h. The membranes were then probed for 2 h with sera from patients who are allergic to fish (1/10 dilution) and the anti-amyloid fibril OC antibody (AB2286 Merck Millipore, 1/2000 dilution), prepared in TBST (TBS containing 0.05% Tween-20) supplemented with 0.5% BSA (w/v) or with rGad m 1 chains (2.5 µM) in TBS. After extensive washes with TBST, a 30 min incubation with either horseradish peroxidase-labeled anti-human IgE (Abcam ab99806, 1/2000 dilution), anti-human IgG4 (Abcam ab99823, 1/4000 dilution), goat anti-rabbit IgG (Sigma, 1/5000 dilution) or anti-6X His tag® antibody (Abcam ab18184, dilution 1/1000) was performed. The signal was developed with the ECL-Western-blotting reagent (Bio-Rad) and detected with a ChemiDoc XRS instrument (Martinez, J. et al. Swiss Med Wkly 145, (2015)). When required, the membranes were regenerated by sequential incubation with TBS containing 8M urea, 1% SDS and 0.5% β-mercaptoethanol for 30 min at 55 °C and three times with acetic acid/ethanol/Milli-Q water (10:50:40). Regions were considered major allergenic epitopes when at least two overlapping peptides were involved. […]
# [2] = Peptide array membranes probed with thioflavin T (ThT); type: physicochemical
# Method: The presence of amyloid folds was then assayed using the conformation-selective OC antibody, which detects oligomer and fibril assemblies produced during the protein fibrillization process and the amyloid probe thioflavin T (ThT) (Kayed, R. et al. Molecular neurodegeneration 2, 18, (2007)). […] Of these regions, peptides 2 and 41 overlap the adhesive segments in helix A and E, predicted by the ZipperDB algorithm (Goldschmidt, L., et al. Proceedings of the National Academy of Sciences of the United States of America 107, 3487-3492, (2010)), peptides 12-16 and 34 lie over the IgE-binding regions III and IV, peptide 24 contains part of the Ca^2+-binding site of domain CD, and peptide 49 corresponds to a previously described epitope groups (Perez-Gordo, M. et al. Mol Nutr Food Res 57, 1283-1290, (2013)) (Fig. 2 and Fig. 7). […] It must be noted that peptides containing the helix C sequence, which was predicted to be an adhesive segment, were not detected by either the OC or ThT binding assays.
# [3] = target: T1, Gad m 1 peptide 12 (12-mer overlapping …); assay: SPOT peptide array incubated with rGad m 1 chains (2.5 µM), anti-6XHis detection
# [4] = target: T2, Gad m 1 peptide 13 (12-mer overlapping …); assay: as above
# [5] = target: T3, Gad m 1 peptide 14 (12-mer overlapping …); assay: as above
# [6] = target: T4, Gad m 1 peptide 15 (12-mer overlapping …); assay: as above
Molecule,IgE binding [1],other results
"1: 12-mer overlapping synthetic peptide of the Gad m 1 sequence, SEQ ID NO: 1 (MAFAGILNDADI) [compound 1]",only recognized by the sera group S-II,–
"6: 12-mer overlapping synthetic peptide of the Gad m 1 sequence, SEQ ID NO: 6 (DITAALAACKAE) [compound 6]",only recognized by the sera group S-II,–
"7: 12-mer overlapping synthetic peptide of the Gad m 1 sequence, SEQ ID NO: 7 (TAALAACKAEGS) [compound 7]",only recognized by the sera group S-II,–
"12: 12-mer overlapping synthetic peptide of the Gad m 1 sequence, SEQ ID NO: 12 (GSFDHKAFFTKV) [compound 12]",–,ThT fluorescence emission [2]: increased fluorescence emission
"18: 12-mer overlapping synthetic peptide of the Gad m 1 sequence, SEQ ID NO: 18 (GLAAKSSADIKK) [compound 18]",variable recognition by the distinct sera,–
"19: 12-mer overlapping synthetic peptide of the Gad m 1 sequence, SEQ ID NO: 19 (AAKSSADIKKVF) [compound 19]",variable recognition by the distinct sera,–
"rGad m 1 wt, amyloid fibrils (formed in 5 mM EDTA) (other, Same chain as the wt monomer, in the amyloid state; also called wt-F; rGad m 1 amyloids; not shown: N-terminal histidine tag of the pET15b construct) AFAGILNDADITAALAACKAEGSFDHKAFFTKVGLAAKSSADIKKVFEIIDQDKSDFVEEDELKLFLQNFSAGARALSDAETKVFLKAGDSDGDGKIGVDEFGAMIKA",–,binding result [3]: binds; binding result [4]: binds; binding result [5]: binds; binding result [6]: binds

# Reference: EP3290438A1, “FOOD ALLERGEN EXTRACTS AND METHODS OF PRODUCING AND USING THE SAME” (CONSEJO SUPERIOR DE INVESTIGACIONES CIENTIFICAS, priority 2016, dated 2018)
